From patent publication US20130324555A1, “Method of use of pharmaceutical formulations for the treatment of apicomplexan diseases in animals” (priority 2012, published 2013) come the findings set out here.

pIC50: −log10 of the molar value. Entries after “also recorded” stand apart in the source; their conditions may differ. Read-outs that look alike come from different tables or passages of the source.

The subject of data set [1] is THdhxgTRP tachyzoites transfected with pLK47. Put plainly: Insertional mutagenesis experiments (selection of resistant mutants). It counts as cell-based, T. gondii. The following applies: prolonged incubation (six weeks). The method, then: Insertional mutagenesis experiments were performed.
THdhxgTRP tachyzoites were transfected with pLK47 vector plasmid. Parasites were extracted from HFF cells and resuspended in 1 mL cytomix electroporation buffer solution (120 mM KCl, 150 uM CaCl2, 5 mM K2HPO4, 5 mM KH2PO4, 25 mM HEPES, 2 mM EDTA and 5 mM MgCl2 in sterile H2O). Equivalent amounts of plasmid DNA and cytomix solution containing 10×10^7 parasites were combined for a total volume of 400 uL and electroporated using BioRad electroporator at 1.5 k, […] and 100Ω. […] Successfully transfected parasites were selected by month-long treatment with mycophenolic acid (25 ug/mL) and xanthine (50 ug/mL). After one month, the mixed mutant population were exposed to 3i, 3j, 7a or 14b to select for those mutants whose gene disruption conferred resistance to the drug.

The test system of a further data set is HFF cells. Put plainly: In vitro toxicity assay on host cells ([3H]-thymidine incorporation or WST-1). Type of data set: cell-based, Human. To be noted: for Toxicity: HFF cells. The method, then: Determination of the anti-apicomplexan activity of Compounds of Formula I may be determined by one skilled in the art. Parasite proliferation was monitored by using stably transfected type I RH-YFP parasites, which constitutively express Yellow Florescent Protein. Proliferation also was tested using a [^3H]-Uracil incorporation assay, as Uracil is incorporated into nucleic acids of T. gondii tachyzoites, but not mammalian cells, as they divide. Complimentary challenge assays ensured that the observed fluorescence data was due to parasite inhibition and not to quenched fluorescence. Pyrimethamine and sulfadiazine were used as positive controls, and DMSO at a concentration of 0.1% was used as the negative control. Because T. gondii is an obligate parasite, compounds that are toxic to host cells will appear to inhibit parasite growth. Therefore, all test compounds were simultaneously evaluated for efficacy and toxicity against human cells.
HFF cells were grown to 30% confluence in 96-well plates.
Inhibitory compounds and control media were added to wells in concentrations equal to those being tested in challenge assays. After 72 hours, [^3H]-Thymidine incorporation assay was conducted to assess cell growth. Alternatively, toxicity was assessed using WST-1 cell proliferation reagent (Roche). Confluent HFF cells were treated with inhibitory and control compounds. On the final day of experiment, 10 uL of WST-1 reagent was added to each well. Plates were incubated for 1 hour in the dark at 37° C., and absorbance was measured using Synergy H4 Hybrid Reader (BioTek) fluorometer at […].
(In general: Incorporation of labelled thymidine or its analogues reports DNA synthesis.)

A further data set has as its system P. falciparum TM90-C235. Put plainly: Malaria SYBR Green 1-Based Fluorescence (MSF) Assay, strain TM90-C235. Type of data set: cell-based. To be noted: for efficacy against TM90-C235 compared with D6 (cross-resistance): D6 versus TM90-C235; for C235 IC50: multi-drug resistant strain TM90-C235. As to the method: Compound activity against P. falciparum, the causative agent of malaria, was assessed using the Malaria SYBR Green 1-Based Fluorescence (MSF) Assay. This microtiter plate drug sensitivity assay uses the presence of malarial DNA as a measure of parasitic proliferation. The assay is a microtiter plate drug sensitivity assay that uses the presence of malarial DNA as a measure of parasitic proliferation in the presence of antimalarial drugs or experimental compounds based on modifications of previously described methods (Plouffe et al., Proc Natl Acad Sci USA. 2008, 105, 9059-9064), (Johnson et al., Antimicrob. Agents Chemother. 2005, 49, 3463-3467).
Selected compounds were examined for activity against two strains of P. falciparum: D6 (CDC/Sierra Leone), a drug-sensitive and readily killed by chloroquine, and TM90-C235, a multi-drug resistant strain resistant to chloroquine.
D6 (CDC/Sierra Leone) and TM90-C235 (WRAIR, Thailand) laboratory strains of P. falciparum were used for each drug sensitivity assessment. The parasite strains were maintained continuously in long-term cultures as previously described in Johnson et al, and P. falciparum strains in late-ring or early-trophozoite stages were cultured in predosed 384-well microtiter drug assay plates in 38 μl culture volume per well at a starting parasitemia of 0.3% and a hematocrit of 2%. Pre-dosed, sterile, 384 well black optical bottom microtiter drug plates for use in the MSF assay were produced using a Tecan EVO Freedom Liquid Handling System (Tecan US, Durham, N.C.). Dose response plates were produced at a final concentration ranging from 0.5-10000 ng/ml in quadruplicate (twelve two-fold serial dilutions of each test compound or chloroquine control in DMSO. Each run was validated by a batch control plate with chloroquine (Sigma-Aldrich Co., Catalog #C6628) at a final concentration of 2000 ng/ml. The cultures were incubated for 72 hours at 37° C., 5% CO2, 5% O2 and 90% N2. Lysis buffer (38 μl per well), consisting of 20 mM Tris HCl, 5 mM EDTA, 1.6% Triton X, 0.016% saponin, and SYBR green I dye at a 20× concentration (Invitrogen, Catalog #S-7567) was then added to the assay plates utilizing the Tecan EVO Freedom system for a final SYBR Green concentration of 10×. Plates were incubated in the dark at room temperature in the dark for 24 hours.
Compound activity was assessed by examining for the relative fluorescence units (RFU) per well using the Tecan Genios Plus (Tecan US, Inc., Durham, N.C.). GraphPad Prism (GraphPad Software Inc., San Diego, Calif.) using the nonlinear regression (sigmoidal dose-response/variable slope) equation was used to determine IC50 values.

The nature of data set [2]: In vivo oral toxicity in mice. The following applies: for toxic effects when dosed orally: gavage daily for nine days, 100 mg/kg; for signs of toxicity in mice, in words: mouse, in vivo. The method, then: Selected compounds were evaluated for in vivo efficacy against T. gondii and P. falciparum. To asses toxic effects when administered orally, selected compounds were administered orally to mice daily for nine days at a dose of 100 mg/kg. At the end of the ten days, the animals were evaluated for toxic effects.
Todetermine whether 14a or 14b exerted toxic effects when dosed orally, each compound was administered by gavage to mice daily for nine days at a dose of 100 mg/kg.
HLA B07 transgenic mice were produced at Pharmexa-Epimmune (San Diego, Calif., USA) and bred at the University of Chicago. All studies were conducted with Institutional Animal Care and Use Committee at the USDA, the University of Chicago, and the University of Strathclyde.

Where [3] appears, read: Plasmodium falciparum, TM90, multi-drug resistant strain TM90-C235, read-out: C235 IC50.
The mark [4] stands for this setting: Plasmodium falciparum, TM90, read-out: C235 IC50.

In the case of `CC(C)(C)c1cccc(NC(=O)c2cc(Cl)ccc2O)c1` [Compound 3i, N-(3-tert-butylphenyl)-5-chloro-2-hydroxybenzamide], in data set [1], the “parasite growth of mixed mutant population in the presence of compound” value (shortened to “parasite growth”) was “No parasite growth was observed; also recorded: No parasite growth was noted”. Moreover, in the data set with HFF cells, the “toxicity to human host cells, in words” value is listed as “not toxic to human host cells” and the Toxicity is reported as over 1000 nM. In the data set on P. falciparum TM90-C235, the “efficacy against TM90-C235 compared with D6 (cross-resistance)” value is reported as “two-fold higher IC50” and the “C235 IC50” value was over 2 µg/mL. Besides, in the data set on P. falciparum TM90-C235 (setting [3]), the concentration for half-maximal inhibition (IC50) is over 2 µg/mL.

For `O=C(Nc1cc(C(F)(F)F)cc(C(F)(F)F)c1)c1cc(Cl)ccc1O` [Compound 3j], the “parasite growth” value in data set [1] is reported as “No parasite growth was observed; also recorded: No parasite growth was noted”. Besides, in the data set on HFF cells, the “toxicity to human host cells, in words” value was “not toxic to human host cells” and the Toxicity is reported as over 1000 nM. For the same molecule, the “efficacy against TM90-C235 compared with D6 (cross-resistance)” value with P. falciparum TM90-C235 was “equally effective”. Besides, the half-inhibitory concentration (IC50) with P. falciparum TM90-C235 (setting [4]) is 0.541 µg/mL.

As to `O=C(Oc1ccc(Cl)cc1C(=O)Nc1ccc([N+](=O)[O-])cc1Cl)c1ccccc1` [Compound 7a, 4-chloro-2-((2-chloro-4-nitrophenyl)carbamoyl)phenyl benzoate], the “parasite growth” value in data set [1] is “No parasite growth was observed; also recorded: No parasite growth was noted”. In the data set with HFF cells, the “toxicity to human host cells, in words” value is “not toxic to human host cells” and the Toxicity is on record as over 1000 nM. In the data set with P. falciparum TM90-C235, the “efficacy against TM90-C235 compared with D6 (cross-resistance)” value is on record as “equally effective” and the “C235 IC50” value was found to be 0.2666 µg/mL. Moreover, the pIC50 with P. falciparum TM90-C235 (Plasmodium falciparum, TM90, chloroquine resistant strain TM90-C235, read-out: TM90-C235 IC50) is 6.22. In addition, the IC50 in the data set with P. falciparum TM90-C235 (setting [3]) came to 0.267 µg/mL.

Turning to `CN(CC(=O)NN)C(=O)Oc1ccc(Cl)cc1C(=O)Nc1ccc([N+](=O)[O-])cc1Cl.Cl` [Compound 14a, 4-chloro-2-((2-chloro-4-nitrophenyl)carbamoyl)phenyl (2-hydrazinyl-2-oxoethyl)(methyl)carbamate hydrochloride], in the data set on HFF cells, the “toxicity to human host cells, in words” value was “not toxic to human host cells” and the Toxicity was over 1000 nM. Also, in data set [2], the “toxic effects when dosed orally” value was “all mice were alive and appeared healthy”; the “signs of toxicity in mice, in words” value is listed as “no signs of toxicity”. Besides, in the data set on P. falciparum TM90-C235, the “efficacy against TM90-C235 compared with D6 (cross-resistance)” value is listed as “equally effective”. Also, the IC50 with P. falciparum TM90-C235 (setting [4]) came to 1.32 µg/mL.

Turning to `CN(CC(=O)NN)C(=O)Oc1ccc(Cl)cc1C(=O)Nc1ccc(C(F)(F)F)cc1C(F)(F)F.Cl` [Compound 14b, 2-((2,4-bis(trifluoromethyl)phenyl)carbamoyl)-4-chlorophenyl (2-hydrazinyl-2-oxoethyl)(methyl)carbamate hydrochloride], the “parasite growth” value in data set [1] (hydrochloride) is “No parasite growth was observed; also recorded: No parasite growth was noted”. Further, in the data set with HFF cells, the “toxicity to human host cells, in words” value was “not toxic to human host cells” and the Toxicity is over 1000 nM. Besides, in data set [2], the “toxic effects when dosed orally” value is “all mice were alive and appeared healthy”; the “signs of toxicity in mice, in words” value was “no signs of toxicity”.

The term IC50 denotes the midpoint of a concentration-inhibition curve. What is called pIC50 is −log10 of the IC50, conventionally taken in molar units.
